The source of these data is patent publication US10758534B2 (Vertex Pharmaceuticals Incorporated, priority 2014, dated 2020).

Where two headings read alike, the source gives them in different places.

This test deals with T1, F508del (Homo sapiens, UniProt P13569, DEL508-508).
T1 construct: expressed in transfected cells
Put plainly: Protocol 2: FRET membrane potential optical assay (VIPR), identification of correction compounds. It is filed as cell-based. A digest of the protocol: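 Correction of the F508del trafficking defect is scored as forskolin (10 μM)/genistein (20 μM)-stimulated Cl^− efflux in NIH3T3 mouse fibroblasts after a 16 hr, 37° C. compound exposure. Depolarization was followed optically using voltage-sensing FRET dyes.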

Where [1] appears, read: F508del CFTR modulator activity, compounds of Table 1, read-out: EC30.
The mark [2] stands for this setting: Table 3, compounds of Table 1 as modulators of CFTR activity, protocol not stated.

T1 sequence (P13569 with tags, fused parts or gaps DEL508-508): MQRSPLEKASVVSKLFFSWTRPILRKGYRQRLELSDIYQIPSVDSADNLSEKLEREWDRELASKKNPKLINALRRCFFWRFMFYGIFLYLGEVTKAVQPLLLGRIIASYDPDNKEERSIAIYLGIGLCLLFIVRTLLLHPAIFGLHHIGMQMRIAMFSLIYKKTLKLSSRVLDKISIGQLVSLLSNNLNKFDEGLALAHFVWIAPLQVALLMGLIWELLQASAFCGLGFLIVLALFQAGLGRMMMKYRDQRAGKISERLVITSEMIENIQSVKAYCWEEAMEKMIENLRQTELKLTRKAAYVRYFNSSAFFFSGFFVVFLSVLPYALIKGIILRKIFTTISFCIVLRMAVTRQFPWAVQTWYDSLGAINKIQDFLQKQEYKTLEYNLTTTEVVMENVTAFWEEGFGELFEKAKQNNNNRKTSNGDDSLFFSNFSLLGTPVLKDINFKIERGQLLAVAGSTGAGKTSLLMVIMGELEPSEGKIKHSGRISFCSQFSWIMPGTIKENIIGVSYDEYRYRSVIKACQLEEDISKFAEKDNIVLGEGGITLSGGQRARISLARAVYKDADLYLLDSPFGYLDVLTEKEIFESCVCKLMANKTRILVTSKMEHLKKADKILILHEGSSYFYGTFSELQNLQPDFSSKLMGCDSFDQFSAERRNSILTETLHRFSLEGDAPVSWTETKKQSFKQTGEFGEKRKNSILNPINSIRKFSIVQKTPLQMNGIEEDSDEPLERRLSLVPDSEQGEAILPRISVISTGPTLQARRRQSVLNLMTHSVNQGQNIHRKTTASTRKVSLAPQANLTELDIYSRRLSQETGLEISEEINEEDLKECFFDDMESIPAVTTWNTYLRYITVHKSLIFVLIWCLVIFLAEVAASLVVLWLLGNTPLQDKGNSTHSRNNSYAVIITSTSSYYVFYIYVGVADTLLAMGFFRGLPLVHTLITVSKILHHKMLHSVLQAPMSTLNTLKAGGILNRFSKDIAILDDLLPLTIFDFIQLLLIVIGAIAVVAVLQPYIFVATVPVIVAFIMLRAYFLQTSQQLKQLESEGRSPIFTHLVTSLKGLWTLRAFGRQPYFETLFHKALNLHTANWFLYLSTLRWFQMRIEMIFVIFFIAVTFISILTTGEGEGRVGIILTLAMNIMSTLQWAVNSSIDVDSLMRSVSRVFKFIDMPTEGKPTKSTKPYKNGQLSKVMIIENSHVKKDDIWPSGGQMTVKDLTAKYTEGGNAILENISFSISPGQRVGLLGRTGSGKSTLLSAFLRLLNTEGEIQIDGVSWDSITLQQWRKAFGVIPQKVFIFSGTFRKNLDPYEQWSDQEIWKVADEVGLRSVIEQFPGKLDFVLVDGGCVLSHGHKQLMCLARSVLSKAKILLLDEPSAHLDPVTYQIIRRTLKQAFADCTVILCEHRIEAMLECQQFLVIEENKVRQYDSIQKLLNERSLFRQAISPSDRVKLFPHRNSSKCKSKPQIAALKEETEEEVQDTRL

What is called EC30 is the concentration needed for an effect of 30%. Take `C[C@@H]1CN(c2nc(C(C)(C)C)c(C3=CCN(C(=O)NC4CCCCC4)CC3)cc2C(=O)NS(=O)(=O)c2cccc(N)n2)C(C)(C)C1` [Compound 2520, N-[(6-amino-2-pyridyl)sulfonyl]-6-tert-butyl-5-[1-(cyclohexylcarbamoyl)-3,6-dihydro-2H-pyridin-4-yl]-2-[(4S)-2,2,4-trimethylpyrrolidin-1-yl]pyridine-3-carboxamide]: the EC30 under setting [1] lay in the range of 3000 to 10000 nM.

On to `CC(C)COc1cc(F)cc(-c2ccc(C(=O)NS(=O)(=O)c3cccc(N)n3)c(N3CC(C(C)(C)C)CC3(C)C)n2)c1` (stereo not drawn) [Compound 2538, N-[(6-amino-2-pyridyl)sulfonyl]-2-(4-tert-butyl-2,2-dimethyl-pyrrolidin-1-yl)-6-(3-fluoro-5-isobutoxy-phenyl)pyridine-3-carboxamide], for which the EC30 under setting [1] was less than 3000 nM.

`Cc1cccc(C)c1Oc1nc(C(F)(F)F)ccc1C(=O)NS(=O)(=O)c1cccc(N)c1` [Compound 243, N-(3-aminophenyl)sulfonyl-2-(2,6-dimethylphenoxy)-6-(trifluoromethyl)pyridine-3-carboxamide]: the EC30 entry under setting [2] was “+++ (“+++” means <3 uM)”.

Regarding `CC(C)COc1cc(F)cc(-c2ccc(C(=O)NS(=O)(=O)c3cccc(N)n3)c(N3CC4(CCC4)C3)n2)c1` [Compound 527, N-[(6-amino-2-pyridyl)sulfonyl]-2-(6-azaspiro[3.3]heptan-6-yl)-6-(3-fluoro-5-isobutoxy-phenyl)pyridine-3-carboxamide], the EC30 entry under setting [2] is recorded as “+++ (“+++” means <3 uM)”.

`CC1CN(c2ncccc2C(=O)NS(=O)(=O)c2cccc(OCC3(C)CC3)n2)C(C)(C)C1` (stereo not drawn) [Compound 2434, N—[[6-[(1-methylcyclopropyl)methoxy]-2-pyridyl]sulfonyl]-2-(2,2,4-trimethylpyrrolidin-1-yl)pyridine-3-carboxamide]: under setting [1], the EC30 was less than 3000 nM.

For the molecule `COc1cc(F)ccc1-c1ccc(C(=O)NS(=O)(=O)c2ccc[nH]c2=O)c(N2C[C@@H](C)CC2(C)C)n1` [Compound 2356, 6-(4-fluoro-2-methoxy-phenyl)-N-[(2-oxo-1H-pyridin-3-yl)sulfonyl]-2-[(4S)-2,2,4-trimethylpyrrolidin-1-yl]pyridine-3-carboxamide], the EC30 under setting [1] is less than 3000 nM.

With `CC1CN(c2ncccc2C(=O)NS(=O)(=O)c2cccc(NCc3cccc(Cl)c3)n2)C(C)(C)C1` (stereo not drawn) [Compound 2064, N—[[6-[(3-chlorophenyl)methylamino]-2-pyridyl]sulfonyl]-2-(2,2,4-trimethylpyrrolidin-1-yl)pyridine-3-carboxamide], under setting [1], the concentration for an effect of 30% (EC30) is less than 3000 nM.

On to `COc1cccc(-c2ccc(C(=O)NS(=O)(=O)c3ccc[nH]c3=O)c(N3C[C@@H](C)CC3(C)C)n2)n1` [Compound 2101, 6-(6-methoxy-2-pyridyl)-N-[(2-oxo-1H-pyridin-3-yl)sulfonyl]-2-[(4S)-2,2,4-trimethylpyrrolidin-1-yl]pyridine-3-carboxamide], for which the EC30 under setting [1] is less than 3000 nM.

For `COc1ccc(CCNc2cccc(S(=O)(=O)NC(=O)c3cccnc3N3CC(C)CC3(C)C)n2)cc1` (stereo not drawn) [Compound 2072, N—[[6-[2-(4-methoxyphenyl)ethylamino]-2-pyridyl]sulfonyl]-2-(2,2,4-trimethylpyrrolidin-1-yl)pyridine-3-carboxamide], the EC30 under setting [1] lay in the range of 3000 to 10000 nM.

Regarding `C[C@@H]1CN(c2nc(-c3cccc(OC(F)(F)F)c3)ccc2C(=O)NS(=O)(=O)N2CC[C@H](N)C2)C(C)(C)C1` [Compound 2029, N-[(3S)-3-aminopyrrolidin-1-yl]sulfonyl-6-[3-(trifluoromethoxy)phenyl]-2-[(4S)-2,2,4-trimethylpyrrolidin-1-yl]pyridine-3-carboxamide], the EC30 under setting [1] is less than 3000 nM.

With `Cc1cc(C)c(CN2Cc3ccccc3[C@H]2C(=O)NS(=O)(=O)c2cccc(N)c2)c(C)c1` [Compound 126, (1S)—N-(3-aminophenyl)sulfonyl-2-[(2,4,6-trimethylphenyl)methyl]isoindoline-1-carboxamide], the EC30 entry under setting [2] is given as “+++ (“+++” means <3 uM)”.

In the case of `Cc1ccc(-c2ccc(C(=O)NS(=O)(=O)c3ccc[nH]c3=O)c(N3C[C@@H](C)CC3(C)C)n2)cc1` [Compound 2438, N-[(2-oxo-1H-pyridin-3-yl)sulfonyl]-6-(p-tolyl)-2-[(4S)-2,2,4-trimethylpyrrolidin-1-yl]pyridine-3-carboxamide], the EC30 under setting [1] was less than 3000 nM.

`CC1CN(c2ncccc2C(=O)NS(=O)(=O)c2cccc(Nc3cccc(C(C)(C)C)c3)n2)C(C)(C)C1` (stereo not drawn) [Compound 2142, N—[[6-(3-tert-butylanilino)-2-pyridyl]sulfonyl]-2-(2,2,4-trimethylpyrrolidin-1-yl)pyridine-3-carboxamide]: under setting [1], the EC30 was less than 3000 nM.

With `Cc1cc(C)c(Cn2c(C(=O)NS(=O)(=O)c3ccccc3O)cc3ccccc32)c(C)c1` [Compound 112, N-(2-hydroxyphenyl)sulfonyl-1-[(2,4,6-trimethylphenyl)methyl]indole-2-carboxamide], the EC30 entry under setting [2] is recorded as “+++ (“+++” means <3 uM)”.

Turning to `Cc1cc(C)c(Cn2c(C(=O)NS(=O)(=O)c3ccncc3)cc3c(F)cccc32)c(C)c1` [Compound 298, 4-fluoro-N-(4-pyridylsulfonyl)-1-[(2,4,6-trimethylphenyl)methyl]indole-2-carboxamide], under setting [2], the EC30 entry is “++ (“++” means between 3 uM and 10 uM)”.

As to `Cc1cc(C)c(CN2c3ccccc3CCCC2C(=O)NS(=O)(=O)c2ccccc2)c(C)c1` (stereo not drawn) [Compound 604, N-(benzenesulfonyl)-1-[(2,4,6-trimethylphenyl)methyl]-2,3,4,5-tetrahydro-1-benzazepine-2-carboxamide], the EC30 entry under setting [2] is listed as “+++ (“+++” means <3 uM)”.

Regarding `CC(C)COc1cc(F)cc(-c2ccc(C(=O)NS(=O)(=O)c3cccc(N)n3)c(N3C[C@H](C(F)(F)F)CC3(C)C)n2)c1` (single isomer, unassigned) [Compound 2271, N-[(6-amino-2-pyridyl)sulfonyl]-2-(2,2-dimethyl-4-(trifluoromethyl)pyrrolidin-1-yl)-6-(3-fluoro-5-isobutoxy-phenyl)pyridine-3-carboxamide], the EC30 under setting [1] was less than 3000 nM.

Consider `CC1CN(c2ncccc2C(=O)NS(=O)(=O)c2cccc(OCc3cccc(-n4cccc4)c3)n2)C(C)(C)C1` (stereo not drawn) [Compound 2600, N—[[6-[(3-pyrrol-1-ylphenyl)methoxy]-2-pyridyl]sulfonyl]-2-(2,2,4-trimethylpyrrolidin-1-yl)pyridine-3-carboxamide], for which the EC30 under setting [1] is less than 3000 nM.

Regarding `COc1cccnc1S(=O)(=O)NC(=O)c1cc2ccccc2n1Cc1c(C)cc(C)cc1C` [Compound 258, N-[(3-methoxy-2-pyridyl)sulfonyl]-1-[(2,4,6-trimethylphenyl)methyl]indole-2-carboxamide], the EC30 entry under setting [2] is “++ (“++” means between 3 uM and 10 uM)”.

For the molecule `CC(C)COc1cc(F)cc(-c2ccc(C(=O)NS(=O)(=O)c3ccn[nH]3)c(N3CCc4ccccc43)n2)c1` [Compound 739, 6-(3-fluoro-5-isobutoxy-phenyl)-2-indolin-1-yl-N-(1H-pyrazol-5-ylsulfonyl)pyridine-3-carboxamide], the EC30 result under setting [2] was “++ (“++” means between 3 uM and 10 uM)”.

As for `CC1CN(c2ncccc2C(=O)NS(=O)(=O)c2cccc(OCCN)n2)C(C)(C)C1` (stereo not drawn) [Compound 2742], the EC30 under setting [1] is 3000 to 10000 nM.

Regarding `Cc1cc(C)c(Oc2nc(C(C)(C)C)ccc2C(=O)NS(=O)(=O)c2cn[nH]c2)c(C)c1` [Compound 401, 6-tert-butyl-N-(1H-pyrazol-4-ylsulfonyl)-2-(2,4,6-trimethylphenoxy)pyridine-3-carboxamide], the 30% effect concentration (EC30) entry under setting [2] is recorded as “+++ (“+++” means <3 uM)”.

Take `CC1CN(c2ncccc2C(=O)NS(=O)(=O)c2cccc(Nc3ccccc3C(F)(F)F)n2)C(C)(C)C1` (stereo not drawn) [Compound 2397, N—[[6-[2-(trifluoromethyl)anilino]-2-pyridyl]sulfonyl]-2-(2,2,4-trimethylpyrrolidin-1-yl)pyridine-3-carboxamide]: the EC30 under setting [1] was less than 3000 nM.

For `Cc1cc(C)c(Oc2nc(-c3cnc(N4CCCCC4)nc3)ccc2C(=O)NS(=O)(=O)c2cccc(N)n2)c(C)c1` [Compound 475, N-[(6-amino-2-pyridyl)sulfonyl]-6-[12-(1-piperidyl)pyrimidin-5-yl]-2-(2,4,6-trimethylphenoxy)pyridine-3-carboxamide], under setting [2], the 30% effect concentration (EC30) entry is “+++ (“+++” means <3 uM)”.

For the molecule `COc1cc(CO)cc(-c2ccc(C(=O)NS(=O)(=O)c3cccnc3N)c(N3C[C@@H](C)CC3(C)C)n2)c1` [Compound 2065, N-[(2-amino-3-pyridyl)sulfonyl]-6-[3-(hydroxymethyl)-5-methoxy-phenyl]-2-[(4S)-2,2,4-trimethylpyrrolidin-1-yl]pyridine-3-carboxamide], the EC30 under setting [1] was less than 3000 nM.

With `C[C@@H]1CN(c2nc(-n3ccc(C4CC4)n3)ccc2C(=O)NS(=O)(=O)c2cccnc2N)C(C)(C)C1` [Compound 2695], under setting [1], the EC30 is less than 3000 nM.

For `CC(C)Oc1ccc(-c2ccc(C(=O)NS(=O)(=O)c3cccc(N)n3)c(N3CCCCC3)n2)cn1` [Compound 567, N-[(6-amino-2-pyridyl)sulfonyl]-6-(6-isopropoxy-3-pyridyl)-2-(1-piperidyl)pyridine-3-carboxamide], under setting [2], the EC30 result was “++ (“++” means between 3 uM and 10 uM)”.

Take `CC(C)COc1ccn(-c2ccc(C(=O)NS(=O)(=O)c3cccnc3N)c(N3CC(C)CC34CCC4)n2)n1` (single isomer, unassigned) [Compound 2194, N-[(2-amino-3-pyridyl)sulfonyl]-6-(3-isobutoxypyrazol-1-yl)-2-(6-methyl-8-azaspiro[3.4]octan-8-yl)pyridine-3-carboxamide]: the EC30 under setting [1] is less than 3000 nM.

In the case of `COCCCN(C)c1cccc(S(=O)(=O)NC(=O)c2cccnc2N2CC(C)CC2(C)C)n1` (stereo not drawn) [Compound 2734], the EC30 under setting [1] lay in the range of 3000 to 10000 nM.

Regarding `CCOc1cccc(-c2cc(C(=O)NS(=O)(=O)c3ccccc3)n(Cc3c(C)cccc3C)n2)c1` [Compound 280, N-(benzenesulfonyl)-2-[(2,6-dimethylphenyl)methyl]-5-(3-ethoxyphenyl)pyrazole-3-carboxamide], the EC30 result under setting [2] was “+++ (“+++” means <3 uM)”.
